Data on 2 compounds can be found in patent publication US8945595B2, “Insect repellent and attractants” (The Regents of the University of California, priority 2009, dated 2015).

In the assay the test system is CO2-sensitive ab1C neurons. Description: single-sensillum electrophysiology, inhibition of CO2 response of ab1C neurons. It counts as cell-based, Drosophila. The note with it: for inhibition of CO2 response of ab1C neurons: 0.3% CO2 with varying concentrations of odourant, applied prior to or after CO2 stimulus; for silencing of CO2 neuron beyond the period of application: 2,3-butanedione at concentrations >=10^-1, 1-hexanol at the concentrations tested; for inhibition of CO2 response across tested CO2 concentrations: CO2 0.1% up to ~3%. From the text:
Representative traces (top) and mean responses (bottom) from single-sensillum electrophysiology of ab1 sensilla in mutant flies; spikes represent activity of the ab1C neuron. a, 3-sec stimulus of odourant overlaid with a 1-sec application of 0.3% CO2. b, 3-sec stimulus of 0.3% CO2 overlaid with a 1-sec application of odourant. PO=paraffin oil, d4on=2,3-butanedione, 6ol=1-hexanol. n=6, error bars=s.e.m. Spikes per second were counted during the 1-sec stimulus period, and spontaneous activity subtracted. (For data in a and b, T-test, *P<0.001, **P<0.005, ***P<0.01, ****P<0.05) c, ab1C responses to indicated concentrations of CO2 in the presence of solvent (PO), 1-hexanol (6ol) or 2,3-butanedione (d4on). Odourants were tested at 10^−1 dilution. Firing rates were counted in consecutive 0.1-sec bins. n=3, error bars=s.e.m.
Bars indicate stimulus periods for 0.3% CO2, and overlays with 1-hexanol (6ol) or 2,3-butanedione (d4on) at the indicated concentrations. b, Recovery of ab1C responsiveness to a 0.5-sec, 0.3% CO2 stimulus applied every 30-sec after initial treatment with 3-sec stimulus of either d4on (10^−1) or paraffin oil (PO). n=5, error bars=s.e.m., (T-test, *P<0.005, **<0.01, ***P<0.05). c, CO2 response inhibition by structurally related compounds. A 3-sec stimulus of 0.3% CO2 was delivered in combination with 1-sec application of indicated odourant (10^−2) as in a. Percent increase or decrease in mean ab1C response was calculated relative to mean response of paraffin oil. n=5. d, Structures of CO2 and the 4 strongest antagonists. e-f, show mean odourant responses. e, Odourants were tested on ab1C neurons in Or83b2 flies at 10^−2 dilution in paraffin oil. Bars represent values after subtraction of mean response to paraffin oil. n=3. f, Odourants at indicated concentrations were tested on ab3A neuron in wild-type (wt) and ΔHalo (AH) mutants that lack Or22a and Or22b. Bars represent values after subtraction of spontaneous activity. n=5, error bars=s.e.m.
FIG. 16 is a schematic diagram of an odour-delivery system to maintain steady concentration of CO2 in binary mixture experiments. Cartridges were made from Pasteur pipettes with pre-filled cotton wool inserts. […] odorant dissolved in paraffin oil (at specific concentrations) was applied to the cotton wool, and a 1.5 ml disposable tip attached to the open end to make the “odour cartridge”. A controlled “humidified air flow” was generated from a compressed air cylinder by bubbling through water, and passed through a glass tube, and released over the recording arena holding the Drosophila. A C-55 stimulus controller (Syntech) was used to generate an additional activated-charcoal filtered continuous air flow of 5 ml/sec which was delivered into the humidified airstream through a “blank cartridge” with the tip placed through a hole in the tube. To generate controlled odourant stimulus the C-55 stimulus controller was used to switch air flow from the “continuous air flow” to “odor stimulus flow” channel. An additional CO2 stimulus was pulsed through a separate system that delivered controlled pulses (variable 2.5 ml/sec-6.5 ml/sec) into the same humidified airstream, from either a 1%, 5% or 100% cylinder of CO2 (Airgas).
Extracellular single-unit recordings were performed. Odourant stimuli were delivered via Pasteur pipette odour cartridges (see, FIG. 16). Chemicals were of the highest purity available, typically>99% (Sigma-Aldrich). All odourants were diluted in paraffin oil. A controlled volume of air 5 ml/sec was puffed through the odour cartridge containing vapours, and was delivered into a constant humidified airstream of 10 ml/sec that was passed over the fly antenna. […] CO2 stimulus was pulsed through a separate delivery system that delivered controlled pulses (variable 2.5 ml/sec-6.5 ml/sec) into the same humidified airstream, from either a 1%, 5% or 100% tank of CO2 (Airgas). […]

Molecules are shown by their SMILES.

As for `CC(=O)C(C)=O` [2,3-butanedione], the “inhibition of CO2 response of ab1C neurons” value was “inhibited CO2 response in a dose-dependent manner” and the “silencing of CO2 neuron beyond the period of application” value is recorded as “silenced the CO2 neuron well beyond the period of application”. Moreover, the “effect of order of presentation on strength of CO2 response inhibition” value (0.3% CO2) was “of lesser consequence”. For the same compound, the “CO2 response at 10 minutes versus neurons not pre-exposed” value (after 3-second stimulus of odourant 10^-1, 0.3% CO2) is reported as “significantly lower”. In addition, under “after 3-second stimulus of odourant 10^-1, 0.5-second 0.3% CO2 every 30 seconds”, the “time until responsiveness to CO2 restored to half-maximal levels” value was roughly 3 min. Under “odourant 10^-1”, the “inhibition of CO2 response across tested CO2 concentrations” value was “complete inhibition”. In addition, the “silencing of CO2-responsive neurons” value (odourant at concentrations >10^-2, 0.3% CO2) is “silences CO2-responsive neurons completely”.

`CCCCCCO` [1-hexanol]: the “inhibition of CO2 response of ab1C neurons” value is on record as “inhibited CO2 response in a dose-dependent manner” and the “silencing of CO2 neuron beyond the period of application” value is “not observed”. The “effect of order of presentation on strength of CO2 response inhibition” value (0.3% CO2) was “greater if it is presented subsequent to the CO2 stimulus”. Also, the “inhibition of CO2 response across tested CO2 concentrations” value (odourant 10^-1) is listed as “significant reduction”. In addition, the “CO2 concentration at which complete inhibition occurs” value (odourant 10^-1, lowest concentration tested) came to 0.1 % CO2.
